Calls of active or inactive are those of the source. The rule behind the calls is not given here.
Tested on: HT-29
Test: Cytotoxicity against human HT-29 cells at 12 to 50 ug/ml
Format: functional, cell-based

## COc1cc(/C=C/C(=O)O[C@@H]2[C@H](O)[C@@H](O[C@@H]3O[C@@H](C)[C@H](O[C@@H]4OC[C@@H](O)[C@H](O[C@@H]5O[C@H](CO)[C@H](O[C@@H]6OC[C@H](O)[C@H](O)[C@H]6O)[C@H](O)[C@H]5O)[C@H]4O)[C@@H](O)[C@H]3O)[C@H](OC(=O)[C@]34CCC(C)(C)C[C@H]3C3=CC[C@@H]5[C@@]6(C)C[C@H](O)[C@H](O[C@@H]7O[C@H](CO)[C@@H](O)[C@H](O)[C@H]7O)[C@@](C)(C(=O)O)[C@@H]6CC[C@@]5(C)[C@]3(CO)CC4)O[C@@H]2C)cc(OC)c1OC
  Activity: Active
